Assay results from patent publication EP1110454A2, “5-Carboxanilido-haloalkylthiazoles as antimicrobial and marine antifouling agents” (ROHM AND HAAS COMPANY, priority 1999, dated 2001).

Assays:
Format in all cases: cell-based
Escherichia coli = assay: Minimum Inhibitory Concentration (MIC) test, two fold serial dilutions; set-up: unit not given here; conditions: Minimal Salts Media (M9G)
Protocol: (§1) The spectrum of antimicrobial activity of the antimicrobial agents useful in the present invention were determined in Minimum Inhibitory Concentration (MIC) tests. MICs were determined by two fold serial dilutions of a compound in Minimal Salts Media (M9G), Trypticase Soy Broth (TSB) or Tryticase Soy Broth and anionic surfactant (TSBA). The compounds were tested against Aspergillus niger, Rhodotorula rubra, Escherichia coli and Pseudomonas aeruginosa. Results of the MIC tests are shown below.

Rhodotorula rubra = assay: as above; set-up: R. Rubra M9G: unit not given here; conditions: for R. Rubra M9G: Minimal Salts Media (M9G)
Protocol: as §1

Aspergillus niger = assay: as above; conditions: Trypticase Soy Broth (TSB)
Protocol: as §1

[1] = test system: Aspergillus niger, Rhodotorula rubra, Escherichia coli and Pseudomonas aeruginosa; assay: MIC tests, overall spectrum of antimicrobial activity; conditions: verbal summary of the MIC results of Table 1
Protocol: as §1

O=C(Nc1c(Br)cc(Br)cc1Br)c1sc(C(F)(F)F)nc1C(F)(F)F [Compound 26]
E.Coli M9G (Escherichia coli): >300
R. Rubra M9G (Rhodotorula rubra): 300

O=C(Nc1c(Br)cc(OC(F)(F)F)cc1Br)c1sc(C(F)(F)F)nc1C(F)(F)F [Compound 29]
E.Coli M9G (Escherichia coli): >300
R. Rubra M9G (Rhodotorula rubra): 300

Cc1nc(C(F)(F)F)c(C(=O)Nc2c(Cl)cc(OC(F)(F)F)cc2Cl)s1 [Compound 33]
E.Coli M9G (Escherichia coli): 300
R. Rubra M9G (Rhodotorula rubra): 300

Cc1nc(C(F)F)c(C(=O)Nc2c(Br)cc(Br)cc2Br)s1 [Compound 34]
E.Coli M9G (Escherichia coli): 300
R. Rubra M9G (Rhodotorula rubra): 300

Cc1nc(C(F)F)c(C(=O)Nc2c(Br)cc(OC(F)(F)F)cc2Br)s1 [Compound 35]
E.Coli M9G (Escherichia coli): 300
R. Rubra M9G (Rhodotorula rubra): 300

O=C(Nc1ccc(F)c(F)c1)c1sc(C(Cl)(Cl)Cl)nc1C(F)(F)F [Compound 43]
E.Coli M9G (Escherichia coli): >300
A. niger TSB (Aspergillus niger): >30
microbicidal activity [1]: surprisingly effective at controlling microorganisms
R. Rubra M9G (Rhodotorula rubra): 30
R. Rubra TSB (Rhodotorula rubra; Trypticase Soy Broth (TSB)): 30
